Values after ≈ are worked out from the molar mass of the structure shown. Active and inactive are the calls of the source. The rule behind the calls is not given here.
How the values were obtained:
Mus musculus [1] = assay: Anti-inflammatory activity in zymosan-induced peritonitis C57BL/6J mouse model assessed as decrease in IL-1beta level in peritoneal cavity preadministered intraperitoneally with compound for 1 hrs followed by zymosan administration and measured after 16 hrs by ELISA; type: functional, organism-based; conditions: dose 10-50 mg/kg, route ip, time 17.0 hrs
[2] = target: T1, Protein cereblon/Tyrosine-protein kinase BTK (Homo sapiens, UniProt Q06187+Q96SW2); assay: PROTAC activity at CRBN/BTK in human Ramos cells assessed as induction of BTK degradation by measuring maximal efficacy incubated for 24 hrs by Western blot analysis relative to control; type: cell-based
Target sequence in this assay (Q06187 2-659 limits assumed): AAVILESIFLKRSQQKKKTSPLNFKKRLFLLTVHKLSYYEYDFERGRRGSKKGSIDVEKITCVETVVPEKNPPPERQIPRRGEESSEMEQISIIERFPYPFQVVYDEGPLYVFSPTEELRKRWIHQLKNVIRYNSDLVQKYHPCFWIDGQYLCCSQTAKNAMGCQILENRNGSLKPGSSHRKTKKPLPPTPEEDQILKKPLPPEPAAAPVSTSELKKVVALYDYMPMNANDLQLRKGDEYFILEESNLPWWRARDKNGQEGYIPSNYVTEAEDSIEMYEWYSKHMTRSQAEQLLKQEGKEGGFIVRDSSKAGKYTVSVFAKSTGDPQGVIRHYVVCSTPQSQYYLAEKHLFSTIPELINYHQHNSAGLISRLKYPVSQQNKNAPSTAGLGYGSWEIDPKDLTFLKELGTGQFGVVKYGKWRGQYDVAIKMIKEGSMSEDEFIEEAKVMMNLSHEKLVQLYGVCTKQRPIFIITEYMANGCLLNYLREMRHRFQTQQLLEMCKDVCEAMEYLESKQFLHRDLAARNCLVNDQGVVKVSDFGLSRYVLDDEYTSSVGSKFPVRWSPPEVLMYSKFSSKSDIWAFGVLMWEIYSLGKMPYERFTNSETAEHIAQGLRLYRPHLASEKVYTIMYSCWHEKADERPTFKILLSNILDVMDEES
Target sequence in this assay (Q96SW2 whole entry partner): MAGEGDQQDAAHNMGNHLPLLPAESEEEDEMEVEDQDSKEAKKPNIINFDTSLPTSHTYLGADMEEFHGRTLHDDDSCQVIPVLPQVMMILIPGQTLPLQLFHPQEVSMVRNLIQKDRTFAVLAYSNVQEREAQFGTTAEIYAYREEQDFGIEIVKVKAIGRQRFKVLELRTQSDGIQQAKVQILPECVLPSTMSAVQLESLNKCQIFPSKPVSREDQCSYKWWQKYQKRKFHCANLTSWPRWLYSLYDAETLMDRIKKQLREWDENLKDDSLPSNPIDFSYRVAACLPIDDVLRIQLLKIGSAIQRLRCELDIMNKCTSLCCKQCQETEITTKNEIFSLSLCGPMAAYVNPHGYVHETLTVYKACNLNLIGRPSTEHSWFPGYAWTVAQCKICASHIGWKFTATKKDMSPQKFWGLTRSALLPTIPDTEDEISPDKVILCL

[3] = MRT (0 to t) in Sprague-Dawley rat at 20 mg/kg, po by UPLC analysis; type: ADME, organism-based; conditions: in vivo
[4] = target: T1, Protein cereblon/Tyrosine-protein kinase BTK; assay: PROTAC activity at CRBN/BTK in human MINO cells assessed as induction of BTK degradation by measuring maximal efficacy incubated for 24 hrs by Western blot analysis relative to control; type: cell-based
Target sequence in this assay (Q06187 2-659 limits assumed): as the sequence (Q06187 2-659 limits assumed) above
Target sequence in this assay (Q96SW2 whole entry partner): as the sequence (Q96SW2 whole entry partner) above

RAW264.7 [5] = assay: Cytotoxicity against mouse RAW264.7 cells assessed as reduction in cell viability upto 10 uM incubated for 24 hrs by CCK8 assay; type: toxicity, cell-based; conditions: raw264.7, 24 h
[6] = Half-life in Sprague-Dawley rat at 20 mg/kg, po by UPLC analysis; type: ADME, organism-based; conditions: in vivo
[7] = target: T1, Protein cereblon/Tyrosine-protein kinase BTK; assay: PROTAC activity at CRBN/BTK in human Ramos cells assessed as hook effect at 10000 nM incubated for 24 hrs by Western blot analysis; type: cell-based
Target sequence in this assay (Q06187 2-659 limits assumed): as the sequence (Q06187 2-659 limits assumed) above
Target sequence in this assay (Q96SW2 whole entry partner): as the sequence (Q96SW2 whole entry partner) above

[8] = Cmax in Sprague-Dawley rat at 2 mg/kg, iv measured after 48 hrs by UPLC analysis; type: ADME, organism-based; conditions: in vivo
[9] = target: T1, Protein cereblon/Tyrosine-protein kinase BTK; assay: PROTAC activity at CRBN/BTK in human Ramos cells assessed as induction of BTK degradation at 100 nM pretreated with compound for 24 hrs followed by compound washout and measured upto 48 hrs by Western blot analysis; type: cell-based
Target sequence in this assay (Q06187 2-659 limits assumed): as the sequence (Q06187 2-659 limits assumed) above
Target sequence in this assay (Q96SW2 whole entry partner): as the sequence (Q96SW2 whole entry partner) above

[10] = target: T1, Protein cereblon/Tyrosine-protein kinase BTK; assay: PROTAC activity at CRBN/BTK in human Ramos cells assessed as induction of BTK degradation at 100 nM incubated for 24 hrs by Western blot analysis relative to control; type: cell-based
Target sequence in this assay (Q06187 2-659 limits assumed): as the sequence (Q06187 2-659 limits assumed) above
Target sequence in this assay (Q96SW2 whole entry partner): as the sequence (Q96SW2 whole entry partner) above

Mus musculus [11] = assay: Anti-inflammatory activity in zymosan-induced peritonitis C57BL/6J mouse model assessed as decrease in IL-6 level in peritoneal cavity preadministered intraperitoneally with compound for 1 hrs followed by zymosan administration and measured after 16 hrs by ELISA; type: functional, organism-based; conditions: dose 10-50 mg/kg, route ip, time 17.0 hrs
RAW264.7 [12] = assay: Inhibition of NF-kappaB activation in LPS-stimulated mouse RAW264.7 cells assessed as prevention of IkappaB-alpha degradation at 0.1 to 10 uM preincubated with compound for 1 hrs followed by LPS stimulation and measured after 24 hrs by Western blot analysis; type: cell-based; conditions: dose 0.1-10 µM, time 25.0 hrs
[13] = Oral bioavailability in Sprague-Dawley rat at 20 mg/kg by UPLC analysis; type: ADME, organism-based; conditions: in vivo
[14] = AUC (0 to t) in Sprague-Dawley rat at 2 mg/kg, iv measured after 48 hrs by UPLC analysis; type: ADME, organism-based; conditions: in vivo
Mus musculus [15] = assay: Anti-inflammatory activity in zymosan-induced peritonitis C57BL/6J mouse model assessed as reduction in myeloid cells in peritoneal cavity preadministered intraperitoneally with compound for 1 hrs followed by zymosan administration and measured after 16 hrs by trypan blue staining based optical microscopic analysis; type: functional, organism-based; conditions: dose 10-50 mg/kg, route ip, time 17.0 hrs
[16] = Cmax in Sprague-Dawley rat at 20 mg/kg, po by UPLC analysis; type: ADME, organism-based; conditions: in vivo
[17] = Aqueous solubility of compound incubated for 24 hrs by HPLC based shake flask method; type: physicochemical; conditions: buffer
[18] = Half-life in Sprague-Dawley rat at 2 mg/kg, iv measured after 48 hrs by UPLC analysis; type: ADME, organism-based; conditions: in vivo
[19] = target: T1, Protein cereblon/Tyrosine-protein kinase BTK; assay: PROTAC activity at CRBN/BTK in human Ramos cells assessed as induction of BTK degradation at 100 nM pretreated with bafilomycin for 2 hrs followed by compound treatment and measured after 8 hrs by Western blot analysis; type: cell-based
Target sequence in this assay (Q06187 2-659 limits assumed): as the sequence (Q06187 2-659 limits assumed) above
Target sequence in this assay (Q96SW2 whole entry partner): as the sequence (Q96SW2 whole entry partner) above

[20] = MRT (0 to infinity) in Sprague-Dawley rat at 2 mg/kg, iv measured after 48 hrs by UPLC analysis; type: ADME, organism-based; conditions: in vivo
RAW264.7 [21] = assay: Inhibition of NF-kappaB activation in LPS-stimulated mouse RAW264.7 cells assessed as inhibition of IkappaB-alpha phosphorylation at 0.1 to 10 uM preincubated with compound for 1 hrs followed by LPS stimulation and measured after 24 hrs by Western blot analysis; type: cell-based; conditions: dose 0.1-10 µM, time 25.0 hrs
[22] = target: T1, Protein cereblon/Tyrosine-protein kinase BTK; assay: PROTAC activity at CRBN/BTK in human Ramos cells assessed as induction of BTK degradation at 100 nM pretreated with ibrutinib for 2 hrs followed by compound treatment and measured after 8 hrs by Western blot analysis; type: cell-based
[23] = Clearance in Sprague-Dawley rat at 2 mg/kg, iv measured after 48 hrs by UPLC analysis; type: ADME, organism-based; conditions: in vivo
[24] = target: Protein cereblon/Tyrosine-protein kinase BTK (Mus musculus) (UniProt P35991+Q8C7D2); assay: PROTAC activity at CRBN/BTK in mouse RAW264.7 cells assessed as induction of BTK degradation by Western blot analysis; type: cell-based; conditions: dose 0.1-10 µM
[25] = target: T1, Protein cereblon/Tyrosine-protein kinase BTK; assay: PROTAC activity at CRBN/BTK in human MINO cells assessed as induction of BTK degradation incubated for 24 hrs by Western blot analysis; type: cell-based
Target sequence in this assay (Q06187 whole entry): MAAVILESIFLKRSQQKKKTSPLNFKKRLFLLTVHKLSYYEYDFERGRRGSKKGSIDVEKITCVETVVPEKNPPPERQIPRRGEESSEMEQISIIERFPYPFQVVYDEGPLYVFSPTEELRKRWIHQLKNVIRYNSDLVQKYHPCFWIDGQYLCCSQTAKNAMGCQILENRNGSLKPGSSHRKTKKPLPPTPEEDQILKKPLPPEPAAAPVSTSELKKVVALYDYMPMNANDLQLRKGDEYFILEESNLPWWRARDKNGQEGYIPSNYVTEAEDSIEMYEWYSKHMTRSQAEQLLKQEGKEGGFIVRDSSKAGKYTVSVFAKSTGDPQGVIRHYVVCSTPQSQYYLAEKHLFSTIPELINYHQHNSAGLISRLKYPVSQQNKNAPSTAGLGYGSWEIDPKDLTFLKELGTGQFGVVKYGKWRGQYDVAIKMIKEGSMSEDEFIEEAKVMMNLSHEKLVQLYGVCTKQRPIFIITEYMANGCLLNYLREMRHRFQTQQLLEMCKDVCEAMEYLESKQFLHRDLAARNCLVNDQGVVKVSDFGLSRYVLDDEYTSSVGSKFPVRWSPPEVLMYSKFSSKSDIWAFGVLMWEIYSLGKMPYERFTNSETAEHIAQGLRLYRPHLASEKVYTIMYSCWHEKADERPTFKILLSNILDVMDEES
Target sequence in this assay (Q96SW2 whole entry): as the sequence (Q96SW2 whole entry partner) above

[26] = target: T1, Protein cereblon/Tyrosine-protein kinase BTK; assay: PROTAC activity at CRBN/BTK in human Ramos cells assessed as induction of BTK degradation at 100 nM pretreated with pomalidomide for 2 hrs followed by compound treatment and measured after 8 hrs by Western blot analysis; type: cell-based
[27] = AUC (0 to t) in Sprague-Dawley rat at 20 mg/kg, po by UPLC analysis; type: ADME, organism-based; conditions: in vivo
RAW264.7 [28] = assay: Anti-inflammatory activity in LPS-stimulated mouse RAW264.7 cells assessed as reduction in IL-6 secretion at 0.1 to 10 uM preincubated with compound for 2 hrs followed by LPS stimulation and measured after 3 hrs by ELISA analysis; type: functional, cell-based; conditions: dose 0.1-10 µM, time 5.0 hrs
[29] = AUC (0 to infinity) in Sprague-Dawley rat at 20 mg/kg, po by UPLC analysis; type: ADME, organism-based; conditions: in vivo
RAW264.7 [30] = assay: Anti-inflammatory activity in LPS-stimulated mouse RAW264.7 cells assessed as reduction in IL-1beta mRNA level preincubated with compound for 2 hrs followed by LPS stimulation and measured after 3 hrs […]; type: functional, cell-based; conditions: dose 0.1-10 µM, time 5.0 hrs
[31] = target: T1, Protein cereblon/Tyrosine-protein kinase BTK; assay: PROTAC activity at CRBN/BTK in human Ramos cells assessed as induction of BTK degradation at 100 nM pretreated with MG132 for 2 hrs followed by compound treatment and measured after 8 hrs by Western blot analysis; type: cell-based
[32] = Apparent volume of distribution in Sprague-Dawley rat at 2 mg/kg, iv measured after 48 hrs by UPLC analysis; type: ADME, organism-based; conditions: in vivo, read-out: Vz
[33] = AUC (0 to infinity) in Sprague-Dawley rat at 2 mg/kg, iv measured after 48 hrs by UPLC analysis; type: ADME, organism-based; conditions: in vivo
RAW264.7 [34] = assay: Anti-inflammatory activity in LPS-stimulated mouse RAW264.7 cells assessed as reduction in IL-6 mRNA level preincubated with compound for 2 hrs followed by LPS stimulation and measured after 3 hrs […]; type: functional, cell-based; conditions: dose 0.1-10 µM, time 5.0 hrs
RAW264.7 [35] = assay: Inhibition of NF-kappaB activation in LPS-stimulated mouse RAW264.7 cells assessed as reduction in phosphorylated BTK level at 0.1 to 10 uM preincubated with compound for 1 hrs followed by LPS stimulation and measured after 24 hrs by Western blot analysis; type: cell-based; conditions: dose 0.1-10 µM, time 25.0 hrs
[36] = target: T1, Protein cereblon/Tyrosine-protein kinase BTK; assay: PROTAC activity at CRBN/BTK in human MINO cells assessed as hook effect upto 10000 nM incubated for 24 hrs by Western blot analysis; type: cell-based
[37] = target: T1, Protein cereblon/Tyrosine-protein kinase BTK; assay: PROTAC activity at CRBN/BTK in human Ramos cells assessed as induction of BTK degradation at 100 nM measured within 4 hrs by Western blot analysis; type: cell-based
RAW264.7 [38] = assay: Anti-inflammatory activity in LPS-stimulated mouse RAW264.7 cells assessed as reduction in IL-1beta secretion at 0.1 to 10 uM preincubated with compound for 2 hrs followed by LPS stimulation and measured after 3 hrs by ELISA analysis; type: functional, cell-based; conditions: dose 0.1-10 µM, time 5.0 hrs
[39] = target: T1, Protein cereblon/Tyrosine-protein kinase BTK; assay: PROTAC activity at CRBN/BTK in human Ramos cells assessed as induction of BTK degradation incubated for 24 hrs by Western blot analysis; type: cell-based
Target sequence in this assay (Q06187 whole entry): as the sequence (Q06187 whole entry) above
Target sequence in this assay (Q96SW2 whole entry): as the sequence (Q96SW2 whole entry partner) above

[40] = target: T1, Protein cereblon/Tyrosine-protein kinase BTK; assay: PROTAC activity at CRBN/BTK in human Ramos cells assessed as induction of BTK degradation at 100 nM measured after 8 hrs by Western blot analysis relative to control; type: cell-based
RAW264.7 [41] = assay: Inhibition of NF-kappaB activation in LPS-stimulated mouse RAW264.7 cells assessed as reduction in phosphorylated p65 level at 0.1 to 10 uM preincubated with compound for 1 hrs followed by LPS stimulation and measured after 24 hrs by Western blot analysis; type: cell-based; conditions: dose 0.1-10 µM, time 25.0 hrs
[42] = MRT (0 to t) in Sprague-Dawley rat at 2 mg/kg, iv measured after 48 hrs by UPLC analysis; type: ADME, organism-based; conditions: in vivo
[43] = MRT (0 to infinity) in Sprague-Dawley rat at 20 mg/kg, po by UPLC analysis; type: ADME, organism-based; conditions: in vivo

Protein cereblon/Tyrosine-protein kinase BTK (Mus musculus), sequence (P35991 whole entry, looked up): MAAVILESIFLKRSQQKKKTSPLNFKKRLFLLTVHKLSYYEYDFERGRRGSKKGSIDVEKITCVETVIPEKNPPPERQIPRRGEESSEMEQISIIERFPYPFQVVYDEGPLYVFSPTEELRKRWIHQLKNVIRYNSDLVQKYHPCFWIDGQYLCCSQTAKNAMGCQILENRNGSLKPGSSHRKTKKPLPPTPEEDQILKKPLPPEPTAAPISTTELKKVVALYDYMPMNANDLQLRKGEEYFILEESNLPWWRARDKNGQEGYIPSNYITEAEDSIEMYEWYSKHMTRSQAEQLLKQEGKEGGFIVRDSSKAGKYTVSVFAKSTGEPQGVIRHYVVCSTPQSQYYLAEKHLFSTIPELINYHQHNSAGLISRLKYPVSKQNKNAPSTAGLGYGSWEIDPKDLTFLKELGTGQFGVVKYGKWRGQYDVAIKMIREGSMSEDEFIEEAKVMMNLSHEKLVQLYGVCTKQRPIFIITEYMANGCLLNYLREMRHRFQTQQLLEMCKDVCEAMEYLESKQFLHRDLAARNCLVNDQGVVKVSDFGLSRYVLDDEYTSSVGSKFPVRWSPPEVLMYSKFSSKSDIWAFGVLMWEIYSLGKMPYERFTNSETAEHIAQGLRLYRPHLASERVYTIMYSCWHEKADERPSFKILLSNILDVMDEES
Protein cereblon/Tyrosine-protein kinase BTK (Mus musculus), sequence (Q8C7D2 whole entry, looked up): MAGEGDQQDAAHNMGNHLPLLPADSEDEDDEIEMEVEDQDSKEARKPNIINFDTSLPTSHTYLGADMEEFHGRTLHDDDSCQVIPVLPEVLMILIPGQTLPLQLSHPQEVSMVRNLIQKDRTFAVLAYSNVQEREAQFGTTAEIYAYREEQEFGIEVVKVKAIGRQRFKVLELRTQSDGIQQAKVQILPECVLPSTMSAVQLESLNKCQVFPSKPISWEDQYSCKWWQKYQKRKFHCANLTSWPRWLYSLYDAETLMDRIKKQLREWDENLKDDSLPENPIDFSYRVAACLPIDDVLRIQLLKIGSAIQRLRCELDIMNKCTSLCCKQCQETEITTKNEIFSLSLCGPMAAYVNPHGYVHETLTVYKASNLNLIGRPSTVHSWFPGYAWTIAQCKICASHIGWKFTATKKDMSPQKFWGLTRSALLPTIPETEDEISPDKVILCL

Nc1ncnc2c1c(-c1ccc(Oc3ccccc3)cc1)nn2C1CCN(C(=O)CN2CCN(CC3CN(c4ccc5c(c4)C(=O)N(C4CCC(=O)NC4=O)C5=O)C3)CC2)CC1 (stereo not drawn)
Activity (Mus musculus [1]): Dose-Dependent Effect | Emax [2]: 99.9% | MRT last [3]: 4.95 h | Emax [4]: 100% | Activity (RAW264.7 [5]): Non-Toxic | half-life [6]: 2.12 h | Activity [7]: Active | Cmax [8]: 1890 ng/mL | Activity [9]: Active | Activity [10]: 99.4% | Activity (Mus musculus [11]): Dose-Dependent Effect | inhibition (RAW264.7 [12]): Active | bioavailability [13]: 0.25% | AUC(0-t) at 48 h [14]: 926 ng·h/mL | Activity (Mus musculus [15]): Dose-Dependent Effect | Cmax [16]: 9.7 ng/mL | solubility thermodynamic at 24 h [17]: 8.16 µg/mL (≈ 9.74 µM) | half-life [18]: 1.82 h | Activity [19]: Active | MRT inf [20]: 1.37 h | inhibition (RAW264.7 [21]): Active | Activity [22]: inactive | clearance [23]: 37.5 mL/min/kg | Activity [24]: Dose-Dependent Effect | EC50 [25]: 7.07 nM | Activity [26]: inactive | AUC(0-t) [27]: 27.1 ng·h/mL | Activity (RAW264.7 [28]): Active | AUC(0-inf) [29]: 29 ng·h/mL | Activity (RAW264.7 [30]): Dose-Dependent Effect | Activity [31]: inactive | Vd [32]: 5.85 L/kg | AUC(0-inf) [33]: 934 ng·h/mL | Activity (RAW264.7 [34]): Dose-Dependent Effect | inhibition (RAW264.7 [35]): Active | Activity [36]: inactive | Activity [37]: Active | Activity (RAW264.7 [38]): Active | EC50 [39]: 3.18 nM | Activity [40]: 100% | inhibition (RAW264.7 [41]): Active | MRT last at 48 h [42]: 1.27 h | MRT inf [43]: 5.23 h
